Tests used:
[1] = system: steady-state neuromuscular block induced by rocuronium bromide (Roc); experiment: Reversal of neuromuscular blockade in vivo, anaesthetized guinea pig, rocuronium
Experimental: (§1) Male Dunkin-Hartley guinea pigs (bodyweight: 600–900 g) were anaesthetized by i.p. administration of 10 mg/kg pentobarbitone and 1000 mg/kg urethane. After tracheotomy, the animals were artificially ventilated using a Harvard small animal ventilator. A catheter was placed into the carotid artery for continuous monitoring of arterial blood pressure and the taking of blood samples for blood gas analysis. Heart rate was derived from the blood pressure signal. The sciatic nerve was stimulated (rectangular pulses of 0.5 ms duration at 10 s (0.1 Hz) intervals at a supramaximal voltage, using a Grass S88 Stimulator) and the force of M. gastrocnemius contractions was measured using a Grass FT03 force-displacement transducer. Contractions, blood pressure and heart rate were recorded on a multichannel Grass 7D recorder. Catheters were placed in both jugular veins. One catheter was used for the continuous infusion of a neuromuscular blocking agent. The infusion rate of the neuromuscular blocking agent was increased until a steady-state block of 85–90% was obtained. The other catheter was used for administration of increasing doses of the reversal agent. During continuous infusion of the neuromuscular blocking agent, single doses of increasing concentration of reversal agent were given. At the end of the experiment, the measured force of muscle contractions was plotted against the concentration of reversal agent, and using regression analysis techniques, the 50% reversal concentration was calculated.
Reversal of neuromuscular block in vivo, induced by rocuronium bromide, was carried out as described in Example 5.

[2] = system: neuromuscular block induced by rocuronium in isolated mouse hemidiaphragm; experiment: Reversal of neuromuscular block in vitro: isolated mouse hemidiaphragm preparation; conditions: for maximum reversal / EC50: rocuronium bromide 3.6 μM in the bath, 95% block; for maximum reversal / EC50 / concentration of chemical chelator at maximum reversal: mouse hemidiaphragm; for EC50: read-out: 50% reversal concentration; for Mouse hemidiaphragm: maximum reversal (%) / concentration of chemical chelator at maximum reversal: 3.1 μM rocuronium; for Reversal of the neuromuscular blocking action of rocuronium (in words): rocuronium-induced block
Experimental: Hemidiaphragms, with phrenic nerves attached, were removed from euthanized male mice (Institute of Cancer Research; bodyweight: 20–60 g). The preparations were mounted on a tissue holder and placed in a tissue bath filled with a modified Krebs-Henseleit solution (composition: 118 mM NaCl, 30 mM NaHCO3, 5 mM KCl, 1 mM KH2PO4, 1 mM MgSO4, 30 mM glucose and 2.5 mM CaCl2) at 37° C. and bubbled with 95% oxygen and 5% carbondioxide. One end of the preparation was connected with a siliconized silk suture to a Grass FT03 force-displacement transducer. An initial force of 10 mN was applied. The phrenic nerve was placed on a bipolar platinum electrode and was stimulated with rectangular pulses of 0.2 ms duration at 20 s (0.05 Hz) intervals at a supramaximal voltage, using a Grass S88 Stimulator. Contractions were recorded on a four channel Grass 79D recorder.
Increasing amounts of reversal agent were then administered into the bath at intervals of 10 min. The % maximum reversal was established. At the end of the experiment, the measured muscle contractions force was plotted against the concentration of reversal agent, and using regression analysis techniques, the 50% reversal concentration was calculated.
After induction of neuromuscular block by rocuronium, the % maximum reversal produced by the addition of a number of γ-cyclodextrin derivatives (compounds 11–16), a cyclic octasaccharide comprising 4 rhamnosyl-mannopyranosyl units (compound 24), or a number of paracyclophane derivatives (compounds 17–21 and 23) are presented in Table II.
Reversal of neuromuscular block in vitro was carried out using the mouse hemidiaphragm preparation as described in Example 6.

[3] = system: steady-state neuromuscular block induced by vecuronium bromide (Vec); experiment: Reversal of neuromuscular blockade in vivo, anaesthetized guinea pig, vecuronium; conditions: Vec infusion, 85–90% block, anaesthetized guinea pigs, i.v. reversal agent; mean
Experimental: as §1

[4] = system: steady-state neuromuscular block induced by pancuronium bromide (Pan); experiment: Reversal of neuromuscular blockade in vivo, anaesthetized guinea pig, pancuronium; conditions: Pan infusion, 85–90% block, anaesthetized guinea pigs, i.v. reversal agent; mean
Experimental: as §1

[5] = system: steady-state neuromuscular block induced by suxamethonium chloride (Sux; succinylcholine); experiment: Reversal of neuromuscular blockade in vivo, anaesthetized guinea pig, suxamethonium; conditions: Sux infusion, 85–90% block, anaesthetized guinea pigs, i.v. reversal agent; mean
Experimental: as §1

[6] = system: steady-state neuromuscular block induced by rapacuronium bromide (Rap; Org 9487); experiment: Reversal of neuromuscular blockade in vivo, anaesthetized guinea pig, rapacuronium; conditions: Rap infusion, 85–90% block, anaesthetized guinea pigs, i.v. reversal agent; mean
Experimental: as §1

[7] = rocuronium bromide, anaesthetised guinea pig, as in Example 5
[8] = Roc infusion, 85–90% block, anaesthetized guinea pigs, i.v. reversal agent, mean

| Molecule | Dose (ED50) producing 50% reversal of steady-state neuromuscular block [1, 8] | Dose (ED50) producing 50% reversal of steady-state neuromuscular block [3] | Mouse hemidiaphragm: maximum reversal (%) [2] | concentration of chemical chelator at maximum reversal [2] | further results |
| --- | --- | --- | --- | --- | --- |
| O=S(=O)(O)c1cc2c(O)c(c1)Cc1cc(S(=O)(=O)O)cc(c1O)Cc1cc(S(=O)(=O)O)cc(c1O)Cc1cc(S(=O)(=O)O)cc(c1O)Cc1cc(S(=O)(=O)O)cc(c1O)Cc1cc(S(=O)(=O)O)cc(c1O)C2 [4-sulfonic calix[6]arene, 4-Sulfonic calix[6]arene] |  |  |  |  | Dose (ED50) producing 50% reversal of steady-state neuromuscular block [1, 7]: 5.1 µmol/kg; maximum reversal [2]: 120%; EC50 [2]: 34 µM |
| OC[C@H]1O[C@@H]2O[C@H]3[C@H](O)[C@@H](O)[C@@H](O[C@H]4[C@H](O)[C@@H](O)[C@@H](O[C@H]5[C@H](O)[C@@H](O)[C@@H](O[C@H]6[C@H](O)[C@@H](O)[C@@H](O[C@H]7[C@H](O)[C@@H](O)[C@@H](O[C@H]1[C@H](O)[C@H]2O)O[C@@H]7CO)O[C@@H]6CO)O[C@@H]5CO)O[C@@H]4CO)O[C@@H]3CO [Compound 1, α-cyclodextrin] | 1575 (2) μmol.kg^−1 | 2610 (1) μmol.kg^−1 |  |  |  |
| O=C(O)CCC(=O)N1CCCCCN(C(=O)CCC(=O)O)c2ccc(cc2)Cc2ccc(cc2)N(C(=O)CCC(=O)O)CCCCCN(C(=O)CCC(=O)O)c2ccc(cc2)Cc2ccc1cc2 [Compound 21, N, N′,N″, N′″-Tetrakis(3-carboxypropionyl)-1,7, 21, 27-tetraaza[7.1.7.1]para-cyclophane] |  |  | 0% | 360 µM |  |
| O=C(O)CCCC(=O)N1CCCCCN(C(=O)CCCC(=O)O)c2ccc(cc2)Cc2ccc(cc2)N(C(=O)CCCC(=O)O)CCCCCN(C(=O)CCCC(=O)O)c2ccc(cc2)Cc2ccc1cc2 [Compound 20, N, N′, N″, N′″-Tetrakis(4-carboxybutyryl)-1,7, 21, 27-tetraaza[7.1.7.1] paracyclophane] |  |  | 8.7% | 72 µM |  |
| O=C(O)CC(=O)N1CCCCCN(C(=O)CC(=O)O)c2ccc(cc2)Cc2ccc(cc2)N(C(=O)CC(=O)O)CCCCCN(C(=O)CC(=O)O)c2ccc(cc2)Cc2ccc1cc2 [Compound 19, N, N′, N″, N′″-Tetrakis(carboxyacetyl)-1,7, 21, 27-tetraaza[7.1.7.1] paracyclophane] |  |  | 2.4% | 108 µM |  |
| carboxymethyl-β-CD (DS = 3.5) [Compound 2] | 134 (2) μmol.kg^−1 | 800 (1) μmol.kg^−1 |  |  |  |
| β-cyclodextrin-phosphate sodium salt (DS = 8) [Compound 6] | 120 (2) μmol.kg^−1 |  |  |  |  |
| per 2,6-dimethyl-β-CD (DS = 12.6) [Compound 4] | 70 (2) μmol.kg^−1 | 1313 (4) μmol.kg^−1 |  |  |  |
| β-cyclodextrin-phosphate sodium salt (DS = 3) [Compound 5] | 280 (3) μmol.kg^−1 |  |  |  |  |
| cyclo[(1–4)-α-L-rhamnopyranosyl-(1–4)-α-D-mannopyranosyl]-tetraoside [Compound 24] |  |  | 86% | 288 µM | Reversal of the neuromuscular blocking action of rocuronium (in words) [2]: efficiently blocked; Reversal of the neuromuscular blocking action of rocuronium (in words) ([2]; listed as cyclo-[(1–4)-α-L-rhamno-pyranosyl-(1–4)-α-D-mannopyranosyl]tetraoside): effective |
| carboxymethyl-β-CD (DS 3–3.5) [Compound 7] | 139 (3) μmol.kg^−1 |  |  |  |  |
| O=C(O)CCC(=O)N1CC2CCC(CC2)CN(C(=O)CCC(=O)O)c2ccc(cc2)Cc2ccc(cc2)N(C(=O)CCC(=O)O)CC2CCC(CC2)CN(C(=O)CCC(=O)O)c2ccc(cc2)Cc2ccc1cc2 [Compound 23, N, N′, N″, N′″-Tetra (3-carboxypropionyl)-3,4,5,6,7,8,26,27,28,29,30,31-dodecahydro-1,10,24,33-tetraaza[2.2.1.2.2.1]paracyclophane] |  |  | 90% | 58 µM | Reversal of the neuromuscular blocking action of rocuronium (in words) [2]: efficiently blocked |
| O=C(O)c1cc2ccc1OCc1ccc(cc1)COc1ccc(cc1C(=O)O)Cc1ccc(c(C(=O)O)c1)OCc1ccc(cc1)COc1ccc(cc1C(=O)O)C2 [Compound 18, 1,10,24,33-tetraoxa-12,20,35,43-tetracarboxy-[2.2.1.2.2.1]paracyclophane] |  |  | 61% | 288 µM | Reversal of the neuromuscular blocking action of rocuronium (in words) [2]: efficiently blocked |
| O=S(=O)(O)c1cc2c(O)c(c1)Cc1cc(S(=O)(=O)O)cc(c1O)Cc1cc(S(=O)(=O)O)cc(c1O)Cc1cc(S(=O)(=O)O)cc(c1O)Cc1cc(S(=O)(=O)O)cc(c1O)Cc1cc(S(=O)(=O)O)cc(c1O)Cc1cc(S(=O)(=O)O)cc(c1O)Cc1cc(S(=O)(=O)O)cc(c1O)C2 [4-sulfonic calix[8]arene] |  |  |  |  | Dose (ED50) producing 50% reversal of steady-state neuromuscular block [1, 7]: 34 µmol/kg; maximum reversal [2]: 124%; EC50 [2]: 36 µM |
| carboxyethyl-β-CD (DS = 3) [Compound 8] | 42 (3) μmol.kg^−1 | 103 (2) μmol.kg^−1 |  |  | Dose (ED50) producing 50% reversal of steady-state neuromuscular block [4]: 479 (2) μmol.kg^−1; Dose (ED50) producing 50% reversal of steady-state neuromuscular block [5]: 408 (2) μmol.kg^−1; Dose (ED50) producing 50% reversal of steady-state neuromuscular block [6]: 412 (2) μmol.kg^−1 |
| γ-cyclodextrin-phospate sodium salt (DS = 7) [Compound 12] | 52 (2) μmol.kg^−1 |  | 17% | 360 µM |  |
| 2-hydroxy-3-trimethylammonio propyl-β-CD (DS = 3.5) [Compound 3] | 518 (2) μmol.kg^−1 | 1400 (1) μmol.kg^−1 |  |  |  |
| 2-hydroxypropyl-β-CD [Compound 10] | 33 (3) μmol.kg^−1 | 1598 (4) μmol.kg^−1 |  |  |  |
| O=C(O)c1cc2ccc1OCCCCCOc1ccc(cc1C(=O)O)Cc1ccc(c(C(=O)O)c1)OCCCCCOc1ccc(cc1C(=O)O)C2 [Compound 17, 1,7,21,27-tetraoxa-9,17,29,37-tetracarboxy[7.1.7.1]paracyclophane] |  |  | 11% | 360 µM |  |

— patent US7265099B1, “Use of chemical chelators as reversal agents for drug-induced neuromuscular block” (Organon N.V., priority 1999, dated 2007)
